According to ChEMBL document CHEMBL4346657, “Anticancer activity, dual prooxidant/antioxidant effect and apoptosis induction profile of new bichalcophene-5-carboxamidines” (Eur J Med Chem, 2019):
The source made the active and inactive calls. No cut-off for these calls is given here.

Columns and labels:
[1] = test system: HCT-15; assay: Antiproliferative activity against human HCT15 cells assessed as growth inhibition after 48 hrs by sulforhodamine B assay; type: functional; settings: HCT-15, 48 h
[2] = Antioxidant activity assessed as ABTS radical scavenging activity by spectrophotometric analysis relative to control; type: functional; design: concentration or dose not given beside the values; settings: dose or concentration not given here
[3] = test system: DU-145; assay: Antiproliferative activity against human DU145 cells assessed as growth inhibition after 48 hrs by sulforhodamine B assay; type: functional; settings: DU-145, 48 h
[4] = test system: MDA-MB-435; assay: Antiproliferative activity against human MDA-MB-435 cells assessed as growth inhibition after 48 hrs by sulforhodamine B assay; type: functional; settings: MDA-MB-435, 48 h
[5] = test system: SF-539; assay: Antiproliferative activity against human SF539 cells assessed as growth inhibition after 48 hrs by sulforhodamine B assay; type: functional; settings: SF-539, 48 h
[6] = test system: SK-MEL-28; assay: Antiproliferative activity against human SK-MEL-28 cells assessed as growth inhibition after 48 hrs by sulforhodamine B assay; type: functional; settings: SK-MEL-28, 48 h
[7] = test system: K562; assay: Antiproliferative activity against human K562 cells assessed as growth inhibition after 48 hrs by sulforhodamine B assay; type: functional, cell-based; settings: K562, 48 h, read-out: IC50
[8] = test system: MCF7; assay: Antiproliferative activity against human MCF7 cells assessed as growth inhibition after 48 hrs by sulforhodamine B assay; type: functional; settings: MCF7, 48 h
[9] = test system: Erythrocyte; assay: Haemolytic activity in human erythrocytes assessed as induction of hemolysis at 1.25 mM after 30 mins relative to H202; type: cell-based; settings: erythrocyte, 0.5 h, 1250 µM
[10] = test system: COLO 205; assay: Antiproliferative activity against human COLO205 cells assessed as growth inhibition after 48 hrs by sulforhodamine B assay; type: functional; settings: COLO 205, 48 h
[11] = test system: HCT-116; assay: Induction of apoptosis in human HCT116 cells assessed as increase in caspase 9 mRNA expression at 100 nM after 6 hrs hrs by SYBR green dye-based qRT-PCR analysis relative to control; type: functional
[12] = test system: CCRF-CEM; assay: Antiproliferative activity against human CCRF-CEM cells assessed as growth inhibition after 48 hrs by sulforhodamine B assay; type: functional
[13] = test system: PC-3; assay: Antiproliferative activity against human PC3 cells assessed as growth inhibition after 48 hrs by sulforhodamine B assay; type: functional; settings: PC-3, 48 h
[14] = test system: HCT-116; assay: Induction of apoptosis in human HCT116 cells assessed as increase in p53 mRNA expression at 100 nM after 6 hrs hrs by SYBR green dye-based qRT-PCR analysis relative to control; type: functional
[15] = test system: SK-MEL-5; assay: Antiproliferative activity against human SK-MEL-5 cells assessed as growth inhibition after 48 hrs by sulforhodamine B assay; type: functional; settings: SK-MEL-5, 48 h
[16] = test system: OVCAR-5; assay: Antiproliferative activity against human OVCAR5 cells assessed as growth inhibition after 48 hrs by sulforhodamine B assay; type: functional; settings: OVCAR-5, 48 h
[17] = test system: MDA-MB-468; assay: Antiproliferative activity against human MDA-MB-468 cells assessed as growth inhibition after 48 hrs by sulforhodamine B assay; type: functional; settings: MDA-MB-468, 48 h
[18] = test system: M14; assay: Antiproliferative activity against human M14 cells assessed as growth inhibition after 48 hrs by sulforhodamine B assay; type: functional; settings: M14, 48 h
[19] = test system: NCI-H322M; assay: Antiproliferative activity against human NCI-H322M cells assessed as growth inhibition after 48 hrs by sulforhodamine B assay; type: functional
[20] = Antioxidant activity assessed as hydroxyl radical scavenging activity after 1 hr by salicylic acid-based Fenton reaction assay; type: functional
[21] = test system: KM12; assay: Antiproliferative activity against human KM12 cells assessed as growth inhibition after 48 hrs by sulforhodamine B assay; type: functional; settings: KM12, 48 h
[22] = Haemolytic activity in human erythrocytes assessed as induction of hemolysis at 2.5 mM after 30 mins relative to H202; type: cell-based, Erythrocyte; settings: erythrocytes, read-out: Activity
[23] = test system: HL-60(TB); assay: Antiproliferative activity against human HL-60(TB) cells assessed as growth inhibition after 48 hrs by sulforhodamine B assay; type: functional; settings: HL-60, 48 h
[24] = test system: SNB-19; assay: Antiproliferative activity against human SNB19 cells assessed as growth inhibition after 48 hrs by sulforhodamine B assay; type: functional; settings: SNB-19, 48 h
[25] = test system: HOP-92; assay: Antiproliferative activity against human HOP92 cells assessed as growth inhibition after 48 hrs by sulforhodamine B assay; type: functional; settings: HOP-92, 48 h
[26] = test system: CAKI-1; assay: Antiproliferative activity against human CAKI-1 cells assessed as growth inhibition after 48 hrs by sulforhodamine B assay; type: functional; settings: CAKI-1, 48 h
[27] = test system: SK-MEL-2; assay: Antiproliferative activity against human SK-MEL-2 cells assessed as growth inhibition after 48 hrs by sulforhodamine B assay; type: functional; settings: SK-MEL-2, 48 h
[28] = test system: UO-31; assay: Antiproliferative activity against human UO31 cells assessed as growth inhibition after 48 hrs by sulforhodamine B assay; type: functional; settings: UO-31, 48 h
[29] = test system: LOX IMVI; assay: Antiproliferative activity against human LOXIMVI cells assessed as growth inhibition after 48 hrs by sulforhodamine B assay; type: functional
[30] = test system: SN12C; assay: Antiproliferative activity against human SN12C cells assessed as growth inhibition after 48 hrs by sulforhodamine B assay; type: functional
[31] = test system: EKVX; assay: Antiproliferative activity against human EKVX cells assessed as growth inhibition after 48 hrs by sulforhodamine B assay; type: functional
[32] = test system: UACC-62; assay: Antiproliferative activity against human UACC62 cells assessed as growth inhibition after 48 hrs by sulforhodamine B assay; type: functional; settings: UACC-62, 48 h
[33] = Selectivity index, ratio of IC50 for human WI38 cells to GI50 for human NCI60 cells
[34] = test system: A549; assay: Antiproliferative activity against human A549/ATCC cells assessed as growth inhibition after 48 hrs by sulforhodamine B assay; type: functional; settings: A549, 48 h
[35] = Pro-oxidant activity assessed as increase in bleomycin-Fe2+ induced calf thymus DNA damage at 2 mM after 1 hr by thiobarbituric acid based absorbance analysis
[36] = test system: T47D; assay: Antiproliferative activity against human T47D cells assessed as growth inhibition after 48 hrs by sulforhodamine B assay; type: functional
[37] = test system: SR; assay: Antiproliferative activity against human SR cells assessed as growth inhibition after 48 hrs by sulforhodamine B assay; type: functional

Row | Compound | GI50 [1] | inhibition [2] | GI50 [3] | GI50 [4] | GI50 [5] | GI50 [6] | IC50 [7] | GI50 [8] | Activity [9] | GI50 [10] | fold change (FC) [11] | GI50 [12] | GI50 [13] | fold change (FC) [14] | GI50 [15] | GI50 [16] | GI50 [17] | GI50 [18] | GI50 [19] | Activity [20] | other results
1 | N=C(N)c1ccc(-c2ccc(-c3ccc(F)cc3)o2)o1 | 0.63 µM | 13.2% | 1.8 µM | 0.35 µM | 1.63 µM | 1.63 µM | 0.49 µM | 0.68 µM | Non-Toxic | 1.6 µM | 4.67 | 1.84 µM | 1.22 µM | 0.96 | 1.56 µM | 1.66 µM | 1.36 µM | 1.23 µM | 1.6 µM | Active | GI50 [21]: 1.44 µM; hemolysis at 0.5 h, 2500 µM [22]: 17.6%; GI50 [23]: 1.8 µM; GI50 [24]: 1.73 µM; GI50 [25]: 1.21 µM; GI50 [26]: 1.71 µM; GI50 [27]: 1.76 µM; GI50 [28]: 1.43 µM; GI50 [29]: 1.55 µM; GI50 [30]: 1.8 µM; GI50 [31]: 1.35 µM; GI50 [32]: 1.74 µM; Selectivity Index [33]: 7.2; GI50 [34]: 1.65 µM; Activity [35]: Active
2 | N=C(N)c1ccc(-c2ccc(-c3ccccc3)o2)o1 | 1.16 µM | 41.3% | 3.3 µM | 0.99 µM | 1.95 µM | 1.9 µM | 0.66 µM | 1.68 µM | Non-Toxic | 1.78 µM | 2.28 | 3.58 µM | 2.64 µM | 0.95 | 1.75 µM | 2.7 µM | 1.64 µM | 1.62 µM | 2.12 µM | Active | GI50 [21]: 2.61 µM; hemolysis at 0.5 h, 2500 µM [22]: 7%; GI50 [23]: 2.18 µM; GI50 [24]: 3.01 µM; GI50 [25]: 1.85 µM; GI50 [26]: 3.4 µM; GI50 [27]: 2.25 µM; GI50 [28]: 1.54 µM; GI50 [29]: 1.7 µM; GI50 [30]: 3.12 µM; GI50 [31]: 2.34 µM; GI50 [32]: 1.93 µM; Selectivity Index [33]: 28.6; GI50 [34]: 3.55 µM; Activity [35]: Active
3 | COc1ccc(-c2ccc(-c3ccc(C(=N)N)o3)o2)cc1 | 0.67 µM | 69.2% | 1.91 µM | 0.29 µM | 1.89 µM | 1.67 µM | 0.49 µM | 0.33 µM | Non-Toxic | 1.25 µM | 2.31 | 1.84 µM | 1.88 µM | 0.94 | 2.8 µM | 2.43 µM | 0.86 µM | 1.47 µM | 2.26 µM | Active | GI50 [36]: 1.53 µM; GI50 [21]: 0.59 µM; hemolysis at 0.5 h, 2500 µM [22]: 8.1%; GI50 [23]: 1.23 µM; GI50 [24]: 1.99 µM; GI50 [26]: 1.75 µM; GI50 [27]: 5.71 µM; GI50 [28]: 1.72 µM; GI50 [29]: 1.48 µM; GI50 [30]: 2.02 µM; GI50 [31]: 2.79 µM; GI50 [37]: 0.42 µM; GI50 [32]: 1.29 µM; Selectivity Index [33]: 41.8; GI50 [34]: 1.49 µM; Activity [35]: Active
4 | N=C(N)c1ccc(-c2ccc(-c3ccc(F)cc3)s2)s1 | 1.34 µM | 49.7% | 1.72 µM | 1.59 µM | 1.67 µM | 1.73 µM | 1.21 µM | 1.15 µM | Non-Toxic | 1.32 µM | 3.89 | 1.85 µM | 1.77 µM | 1.06 | 1.81 µM | 1.7 µM | 2.04 µM | 1.89 µM | 1.63 µM | Active | GI50 [36]: 1.74 µM; GI50 [21]: 1.71 µM; hemolysis at 0.5 h, 2500 µM [22]: 14%; GI50 [23]: 1.4 µM; GI50 [24]: 1.97 µM; GI50 [26]: 1.68 µM; GI50 [27]: 1.81 µM; GI50 [28]: 1.77 µM; GI50 [29]: 1.62 µM; GI50 [30]: 1.98 µM; GI50 [31]: 1.47 µM; GI50 [37]: 1.17 µM; GI50 [32]: 1.94 µM; Selectivity Index [33]: 7.5; GI50 [34]: 1.93 µM; Activity [35]: Active
